Experimental data reported in patent US6706663B2, “Herbicidal 3-heterocyclic substituted benzisothiazole and benzisoxazole compounds” (Wyeth, priority 2000, dated 2004).

Key:
SETVI (Setaria viridis) [1] = assay: Postemergence herbicidal evaluation; format: in vivo, (L.) Beau; details: for SETVI herbicidal rating: postemergence
In short: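 Seedlings grown about two weeks were sprayed with compound in 50/50 acetone/water containing 0.5% TWEEN 20, at about 0.0040 to 1.000 kg/ha via nozzle at 40 psi. Plants were kept under greenhouse conditions and visually rated on a 0-9 scale versus control four to five weeks after treatment; replicate tests averaged.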

[2] = test system: MOOVA (Monochoria vaginalis); assay: Flooded paddy, preemergence weed control; format: in vivo, Presl.; details: rated 3-4 weeks after treatment, 0-9 rating scale
In short: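 Greenhouse paddy test, preemergence. Seeds planted in the top 0.5 cm of silt loam soil, which remained flooded at 1.5–3 cm depth. Scored 0-9 by visual comparison with control.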

ORYSAT (Rice, Tebonnet) [3] = assay: Postemergence herbicidal evaluation; format: in vivo, Oryza sativa, (L.) Tebonnet; details: for ORYSAT herbicidal rating: postemergence
In short: (§1)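 Seedlings grown about two weeks in flats, sprayed, then kept under standard greenhouse care. Rated visually 4–5 weeks after treatment on a 0–9 scale (stand, vigour, malformation, size, chlorosis, overall appearance) relative to untreated control; repeat tests averaged.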

[4] = test system: TRZAWR (Wheat, Winter, cv Riband); assay: Postemergence herbicidal evaluation; format: in vivo, Triticum aestivum; details: for TRZAWR herbicidal rating: postemergence
In short: as §1

[5] = test system: ECHCG (Echinochloa crus-galli); assay: Preemergence herbicidal evaluation; format: in vivo, (L.) Beau; details: rated 4-5 weeks after treatment
In short: (§2)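 Seeds planted in potting soil cups and sprayed preemergence with aqueous acetone compound solution. Greenhouse-grown; rated 4–5 weeks after treatment on a 0-9 visual scale (stand, vigor, malformation, size, chlorosis, appearance) versus control.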

SETVI (Setaria viridis) [6] = assay: Preemergence herbicidal evaluation; format: in vivo, (L.) Beau; details: rated 4-5 weeks after treatment
In short: as §2

ORYSAT (Rice, Tebonnet) [7] = assay: Flooded paddy, post-transplant rice tolerance; format: in vivo, Oryza sativa, (L.) Tebonnet; details: flooded paddy, post-transplant rice, rated 3-4 weeks after treatment, 0-9 rating scale
In short: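 Ten-day-old seedlings, 2/pot, silt loam; flood kept 1.5–3 cm over soil; herbicide applied post-transplant; greenhouse; score 0–9 visual vs control.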

[8] = test system: ABUTH (Abutilon theophrasti); assay: Preemergence herbicidal evaluation; format: in vivo, Medic.; details: rated 4-5 weeks after treatment

Row | Compound | Postemergence herbicidal rating, SETVI (SETVI (Setaria viridis) [1]; rate 0.0320 kg/ha) | Postemergence herbicidal rating, SETVI (SETVI (Setaria viridis) [1]; rate 0.0620 kg/ha) | herbicidal rating, MOOVA ([2]; rate 0.0320 kg/ha) | herbicidal rating, MOOVA ([2]; rate 0.1250 kg/ha) | Postemergence herbicidal rating, ORYSAT (ORYSAT (Rice, Tebonnet) [3]; rate 0.0320 kg/ha) | Postemergence herbicidal rating, ORYSAT (ORYSAT (Rice, Tebonnet) [3]; rate 0.0620 kg/ha) | Postemergence herbicidal rating, TRZAWR ([4]; rate 0.0320 kg/ha) | Postemergence herbicidal rating, TRZAWR ([4]; rate 0.0620 kg/ha) | Preemergence herbicidal rating ECHCG ([5]; Rate 0.0620 kg/ha) | Preemergence herbicidal rating ECHCG ([5]; Rate 0.1250 kg/ha) | Preemergence herbicidal rating ECHCG ([5]; Rate 0.2500 kg/ha) | Preemergence herbicidal rating SETVI (SETVI (Setaria viridis) [6]; Rate 0.0620 kg/ha) | Preemergence herbicidal rating SETVI (SETVI (Setaria viridis) [6]; Rate 0.1250 kg/ha) | Preemergence herbicidal rating SETVI (SETVI (Setaria viridis) [6]; Rate 0.2500 kg/ha) | herbicidal rating, ORYSAT (rice tolerance) (ORYSAT (Rice, Tebonnet) [7]; rate 0.0080 kg/ha) | herbicidal rating, ORYSAT (rice tolerance) (ORYSAT (Rice, Tebonnet) [7]; rate 0.0320 kg/ha) | herbicidal rating, ORYSAT (rice tolerance) (ORYSAT (Rice, Tebonnet) [7]; rate 0.1250 kg/ha) | Preemergence herbicidal rating ABUTH ([8]; Rate 0.0620 kg/ha) | Preemergence herbicidal rating ABUTH ([8]; Rate 0.1250 kg/ha) | Preemergence herbicidal rating ABUTH ([8]; Rate 0.2500 kg/ha) | further results
1 | Cn1c(C(F)(F)F)cc(=O)n(-c2ccc3snc(C4OCCCS4)c3c2)c1=O (centres unmarked) [Compound 34, 1-methyl-3-[3-(1,3-oxathian-2-yl)-1,2-benzisothiazol-5-yl]-6-(trifluoromethyl)uracil] | 6.0 | 8.0 | 9.0 | 9.0 | 7.0 | 7.0 | 5.5 | 5.5 | 9.0 | 9.0 | 9.0 | 9.0 | 9.0 | 9.0 | 3.0 | 6.7 | 9.0 | 9.0 | 9.0 | 9.0 | SETVI herbicidal rating (SETVI (Setaria viridis) [1]; rate 0.0320 kg/ha): 9.0; SETVI herbicidal rating (SETVI (Setaria viridis) [1]; rate 0.0620 kg/ha): 9.0; herbicidal rating, MOOVA ([2]; rate 0.0620 kg/ha): 9.0; ORYSAT herbicidal rating (ORYSAT (Rice, Tebonnet) [3]; rate 0.0320 kg/ha): 5.5; ORYSAT herbicidal rating (ORYSAT (Rice, Tebonnet) [3]; rate 0.0620 kg/ha): 6.5; TRZAWR herbicidal rating ([4]; rate 0.0320 kg/ha): 4.0; TRZAWR herbicidal rating ([4]; rate 0.0620 kg/ha): 6.5; ECHCG preemergence herbicidal rating ([5]; Rate 0.0620 kg/ha): 7.0; ECHCG preemergence herbicidal rating ([5]; Rate 0.1250 kg/ha): 8.0; ECHCG preemergence herbicidal rating ([5]; Rate 0.2500 kg/ha): 9.0; SETVI preemergence herbicidal rating (SETVI (Setaria viridis) [6]; Rate 0.0620 kg/ha): 9.0; SETVI preemergence herbicidal rating (SETVI (Setaria viridis) [6]; Rate 0.1250 kg/ha): 9.0; SETVI preemergence herbicidal rating (SETVI (Setaria viridis) [6]; Rate 0.2500 kg/ha): 9.0; herbicidal rating, ORYSAT (rice tolerance) (ORYSAT (Rice, Tebonnet) [7]; rate 0.0080 kg/ha, listed as 81): 5.0; herbicidal rating, ORYSAT (rice tolerance) (ORYSAT (Rice, Tebonnet) [7]; rate 0.0620 kg/ha): 8.5; herbicidal rating, ORYSAT (rice tolerance) (ORYSAT (Rice, Tebonnet) [7]; rate 0.1250 kg/ha, listed as 81): 8.0; ABUTH preemergence herbicidal rating ([8]; Rate 0.0620 kg/ha): 9.0; ABUTH preemergence herbicidal rating ([8]; Rate 0.1250 kg/ha): 9.0; ABUTH preemergence herbicidal rating ([8]; Rate 0.2500 kg/ha): 9.0
2 | CCOc1cc(OCC)nc(-c2nsc3ccc(-n4c(=O)cc(C(F)(F)F)n(C)c4=O)cc23)n1 [Compound 43, 3-[3-(4,6-diethoxy-2-pyrimidinyl)-1,2-benzisothiazol-5-yl]-1-methyl-6-(trifluoromethyl)uracil] | 5.0 | 4.0 | 4.0 | 6.0 | 2.0 | 2.0 | 2.5 | 3.5 | 0.0 | 0.0 | 3.0 | 9.0 | 9.0 | 9.0 | – | 0.0 | 2.0 | 4.0 | 9.0 | 9.0 | –
3 | Cn1c(C(F)(F)F)cc(=O)n(-c2ccc3snc(C4OCC(C)(C)CO4)c3c2)c1=O [Compound 36, 3-[3(5,5-dimethyl-m-dioxan-2-yl)-1,2-benzisothiazol-5-yl]-1-methyl-6-(trifluoromethyl)uracil] | 4.0 | 9.0 | 9.0 | – | 4.5 | 7.0 | 4.0 | 4.5 | – | – | – | – | – | – | 5.0 | 7.5 | 9.0 | – | – | – | herbicidal rating, MOOVA ([2]; rate 0.0080 kg/ha): 9.0; ECHCG preemergence herbicidal rating ([5]; Rate 0.0620 kg/ha): 9.0; ECHCG preemergence herbicidal rating ([5]; Rate 0.1250 kg/ha): 9.0; ECHCG preemergence herbicidal rating ([5]; Rate 0.2500 kg/ha): 9.0; SETVI preemergence herbicidal rating (SETVI (Setaria viridis) [6]; Rate 0.0620 kg/ha): 9.0; SETVI preemergence herbicidal rating (SETVI (Setaria viridis) [6]; Rate 0.1250 kg/ha): 9.0; SETVI preemergence herbicidal rating (SETVI (Setaria viridis) [6]; Rate 0.2500 kg/ha): 9.0; ABUTH preemergence herbicidal rating ([8]; Rate 0.0620 kg/ha): 9.0; ABUTH preemergence herbicidal rating ([8]; Rate 0.1250 kg/ha): 9.0; ABUTH preemergence herbicidal rating ([8]; Rate 0.2500 kg/ha): 9.0
4 | CN(C(=O)c1nsc2ccc(-n3c(=O)cc(C(F)(F)F)n(C)c3=O)cc12)c1ccc(Cl)cc1 [Compound 18, 1,2-benzisothiazole-3-carboxanilide, 4′-chloro-5-[3,6-dihydro-3-methyl-2,6-dioxo-4-(trifluoromethyl)-1(2H)-pyrimidinyl]-N-methyl-] | 0.0 | 0.0 | 9.0 | 9.0 | 2.0 | 3.0 | 3.0 | 4.0 | – | – | – | – | – | – | 0.0 | 1.5 | 5.0 | – | – | – | Postemergence herbicidal rating, SETVI (SETVI (Setaria viridis) [1]; rate 0.1250 kg/ha): 5.0; Postemergence herbicidal rating, SETVI (SETVI (Setaria viridis) [1]; rate 0.2500 kg/ha): 9.0; herbicidal rating, MOOVA ([2]; rate 0.0080 kg/ha): 0.0; Postemergence herbicidal rating, ORYSAT (ORYSAT (Rice, Tebonnet) [3]; rate 0.1250 kg/ha): 5.0; Postemergence herbicidal rating, ORYSAT (ORYSAT (Rice, Tebonnet) [3]; rate 0.2500 kg/ha): 5.5; Postemergence herbicidal rating, TRZAWR ([4]; rate 0.1250 kg/ha): 5.0; Postemergence herbicidal rating, TRZAWR ([4]; rate 0.2500 kg/ha): 6.0; ECHCG preemergence herbicidal rating ([5]; Rate 0.0620 kg/ha): 0.0; ECHCG preemergence herbicidal rating ([5]; Rate 0.1250 kg/ha): 2.0; ECHCG preemergence herbicidal rating ([5]; Rate 0.2500 kg/ha): 9.0; SETVI preemergence herbicidal rating (SETVI (Setaria viridis) [6]; Rate 0.0620 kg/ha): 8.0; SETVI preemergence herbicidal rating (SETVI (Setaria viridis) [6]; Rate 0.1250 kg/ha): 9.0; SETVI preemergence herbicidal rating (SETVI (Setaria viridis) [6]; Rate 0.2500 kg/ha): 9.0; ABUTH preemergence herbicidal rating ([8]; Rate 0.0620 kg/ha): 9.0; ABUTH preemergence herbicidal rating ([8]; Rate 0.1250 kg/ha): 9.0; ABUTH preemergence herbicidal rating ([8]; Rate 0.2500 kg/ha): 9.0
5 | Cn1c(C(F)(F)F)cc(=O)n(-c2ccc3snc(C4OCC(c5ccccc5)O4)c3c2)c1=O (centres unmarked) [Compound 78, 1-methyl-3-[3-(4-phenyl-1,3-dioxolan-2-yl)-1,2-benzisothiazol-5-yl]-6-(trifluoromethyl)uracil] | – | – | 9.0 | 9.0 | – | – | – | – | 8.5 | 9.0 | 8.0 | 9.0 | 9.0 | 9.0 | 4.0 | 5.7 | 8.5 | 9.0 | 9.0 | 9.0 | SETVI herbicidal rating (SETVI (Setaria viridis) [1]; rate 0.0320 kg/ha): 7.0; SETVI herbicidal rating (SETVI (Setaria viridis) [1]; rate 0.0620 kg/ha): 9.0; herbicidal rating, MOOVA ([2]; rate 0.0080 kg/ha): 7.7; ORYSAT herbicidal rating (ORYSAT (Rice, Tebonnet) [3]; rate 0.0320 kg/ha): 4.0; ORYSAT herbicidal rating (ORYSAT (Rice, Tebonnet) [3]; rate 0.0620 kg/ha): 4.0; TRZAWR herbicidal rating ([4]; rate 0.0320 kg/ha): 3.5; TRZAWR herbicidal rating ([4]; rate 0.0620 kg/ha): 5.0
6 | C[C@@H]1OC(c2nsc3ccc(-n4c(=O)cc(C(F)(F)F)n(C)c4=O)cc23)O[C@@H]1C (stereo partly drawn) [Compound 47, 3-[3-[(4R,5S)-4,5-dimethyl-1,3-dioxolan-2-yl]-1,2-benzisothiazol-5-yl]-1-methyl-6-(trifluoromethyl)uracil] | 9.0 | 9.0 | 9.0 | 9.0 | 4.0 | 6.5 | 5.0 | 6.0 | 9.0 | 9.0 | 9.0 | 9.0 | 8.5 | 9.0 | 3.0 | 7.5 | 9.0 | 9.0 | 9.0 | 9.0 | –
